In assay [1] the test system is PC-12. The assay is described as follows: Inhibition of NMDA-induced Ca2+ influx in rat PC-12 cells assessed as reduction in intracellular Ca2+ concentration at 15 uM pretreated for 24 hr followed by NMDA addition and measured after 6 hrs by Fluo2-AM staining based fluorescence microscopic method. It counts as functional, cell-based. The settings on record: time 30.0 hrs.

The subject of assay [2] is PC-12. Nature of the assay: Neuroprotective activity against NMDA-induced excitotoxicity in rat PC-12 cells assessed as increase in cell viability at 5 uM pretreated for 24 hr followed by NMDA addition and measured after 6 hrs by MTT assay. It counts as functional, cell-based. The settings on record: time 30.0 hrs.
In assay [3] the test system is PC-12. Nature of the assay: Neuroprotective activity against NMDA-induced excitotoxicity in rat PC-12 cells assessed as increase in cell viability at 20 uM pretreated for 24 hr followed by NMDA addition and measured after 6 hrs by MTT assay. Format: functional.
Assay [4] concerns PC-12. Nature of the assay: Neuroprotective activity against NMDA-induced excitotoxicity in rat PC-12 cells assessed as increase in cell viability at 15 uM pretreated for 24 hr followed by NMDA addition and measured after 6 hrs by MTT assay. Format: functional. The following applies: time 30 hrs.
The test system of assay [5] is PC-12. The assay is described as follows: Neuroprotective activity against NMDA-induced excitotoxicity in rat PC-12 cells assessed as increase in cell viability pretreated for 24 hr followed by NMDA addition and measured after 6 hrs by MTT assay. Format: functional, cell-based. The following applies: dose 2.5-20 µM, time 30.0 hrs, DDE = dose-dependent effect.
The test system of assay [6] is PC-12. The assay is described as follows: Neuroprotective effect against NMDA-induced rat PC-12 cells assessed as prevention of morphological changes at 15 uM. It counts as functional, cell-based.

Each structure is given as a SMILES string. The source made the active and inactive calls. The rule behind the calls is not given here.

For `O=C1C[C@@H](c2cccc(OCc3ccccc3)c2)[C@H]2Cc3c(F)cccc3N12` (racemic), in the assay with PC-12 [1], the inhibition entry was “Active”. The outcome in the assay with PC-12 [2] and in the assay with PC-12 [6] was Active. The Activity was 94.59% with PC-12 [3] (time 30 hrs), 96.16% in the assay with PC-12 [4] and “Dde” in the assay with PC-12 [5].

As to `COc1c(OCc2ccccc2)cccc1[C@@H]1CC(=O)N2c3ccccc3C[C@H]12` (racemic), the outcome in the assay with PC-12 [3] (time 30.0 hrs) was Active.

Turning to `COc1cc(OC)cc([C@@H]2CC(=O)N3c4ccccc4C[C@H]23)c1` (racemic), the result in the assay with PC-12 [3] (time 30.0 hrs) was Active.

Turning to `COc1ccc([C@@H]2CC(=O)N3c4ccccc4C[C@H]23)cc1` (racemic), in the assay on PC-12 [3] (time 30.0 hrs), the outcome was Active.

As for `COc1ccccc1[C@@H]1CC(=O)N2c3ccccc3C[C@H]12` (racemic), in the assay with PC-12 [3] (time 30.0 hrs), the outcome was Active.

Turning to `O=C1C[C@@H](c2cccc(OCc3ccccc3)c2)[C@H]2Cc3cc(OCc4ccccc4)ccc3N12` (racemic), in the assay on PC-12 [3] (time 30.0 hrs), the outcome was Active.

For `O=C1C[C@@H](c2cccc(OCc3ccccc3)c2)[C@H]2Cc3ccccc3N12` (racemic), the outcome in the assay on PC-12 [3] (time 30.0 hrs) was Active.

`O=C1C[C@@H](c2ccccc2)[C@H]2Cc3ccccc3N12` (racemic): the outcome with PC-12 [3] (time 30.0 hrs) was Active.

As for `O=C1C[C@H](c2cccc(OCc3ccccc3)c2)[C@H]2Cc3c(F)cccc3N12` (racemic), the result in the assay with PC-12 [3] (time 30.0 hrs) was Active.

With `O=C1C[C@H](c2cccc(OCc3ccccc3)c2)[C@H]2Cc3ccccc3N12` (racemic), the result in the assay with PC-12 [3] (time 30.0 hrs) was Active.

On to `C[C@]12N[C@H](Cc3ccccc31)c1ccccc12.O=C(O)/C=C\C(=O)O` [DIZOCILPINE MALEATE], for which the inhibition entry in the assay with PC-12 [1] is “Active”. Also, the outcome with PC-12 [2] and in the assay on PC-12 [6] was Active. The Activity with PC-12 [3] (time 30 hrs) was 95.48%; with PC-12 [4] it was 96.96%; in the assay with PC-12 [5] it was “Dde”.

The values above are taken from ChEMBL document CHEMBL5120765, “Synthesis of novel 1-phenyl-benzopyrrolizidin-3-one derivatives and evaluation of their cytoneuroprotective effects against NMDA-induced injury in PC12 cells” (Bioorg Med Chem, 2022).
